Columns and labels:
hindquarter blood flow = experiment: Vasodilatation in vivo (perfused hindquarters at constant pressure); conditions: Rattus norvegicus, iv; dose producing a 50% increase in hindquarter blood flow; bolus i.v.; anaesthetised male Wistar rats; read-out: EDHQ₅₀
Procedure: Male Wistar rats (300 g) were anaesthetised with a sodium 5-ethyl-5-(1-methylpropyl)-2-thiobarbiturate/sodium pentobarbitone mixture i.p. (62.5 and 22.5 mg/kg respectively). The trachea was cannulated and the rats breathed spontaneously air enriched with O₂ (5 ml/min). Blood pressure was recorded from a carotid artery and a jugular vein was cannulated for the administration of compounds. The temperature of the animal was maintained at 37°C by the use of an electric blanket. […] The perfusion circuit was primed with 5% bovine serum albumin dissolved in 0.9% sodium chloride solution, pH adjusted to 7.4. Initially the pump rate was set between 10 and 15 ml/min to match the hind quarter perfusion pressure to that of the systemic circulation. Once set, the pressure remained unaltered for the rest of the experiment. A change in the speed of the pump (equivalent to hindquarter blood flow) was used to assess the changes in hindquarter vascular resistance.
All compounds were administered as a bolus i.v. and from the dose response curves the dose required to produce a 50% increase in hindquarter blood flow (EDHQ₅₀) was determined in µmoles/kg.

[1] = tested on: bronchoconstrictor response; experiment: Anti-allergic activity (ovalbumen challenge in sensitised animals); format: in vivo, Duncan Hartley guinea-pigs; conditions: Cavia porcellus, iv, 0.5 h; dose of 11 µmol/kg i.v.; ovalbumen 1mg.kg⁻¹ i.v. challenge 30 minutes following drug administration; sensitised guinea-pigs; read-out: inhibition of the control bronchoconstrictor response
Procedure: Male Duncan Hartley guinea-pigs (250-300 g) were sensitised to ovalbumen by i.p. injection of 2 ml of 50mg.ml⁻¹ i.p. and 0.2 ml s.c. Three weeks later they were anaesthetised with 60mg.kg⁻¹ sodium pentabarbitone. The trachea was cannulated and the animal respired at a rate of 40 breaths per minute and at an initial tracheal inflation pressure of 16 mmHg. Tracheal inflation pressure was measured by a transducer connected to a side arm of the respiration circuit. The carotid artery was cannulated for the measurement of blood pressure and the signal was used to trigger an instantaneous rate meter. A jugular vein was cannulated for the administration of drug and allergen. After surgery the animals were allowed to stabilise and the drug was administered i.v. as a bolus. Following this, ovalbumen 1mg.kg⁻¹ was injected i.v. as the antigen challenge either 2, 15 or 30 minutes following drug treatment and the peak bronchoconstrictor response recorded. For the control group ovalbumen only was given. One ovalbumen challenge per guinea-pig was used and n = 6 for each time point. The percentage increase in tracheal inflation pressure was calculated.

In the case of `CCCOc1ccccc1-c1ccc(C#N)c(=O)[nH]1` [Example 1, 3-Cyano-6-(2-propoxyphenyl)-2(1H)-pyridinone], the ED50 (hindquarter blood flow) is reported as 11.5 µmol/kg.

Molecule `CCCOc1ccccc1-c1ccc(C(N)=O)c(=O)[nH]1` [Example 2, 6-(2-Propoxyphenyl)-1,2-dihydro-2-oxopyridine-3-carboxamide] has an inhibition at 11 µmol/kg [1] of 44% and an ED50 (hindquarter blood flow) of 14 µmol/kg.

Reference: patent EP0347027B1, “Phenylpyridone derivatives,processes for their preparation and pharmaceutical compositions containing them” (SMITH KLINE & FRENCH LABORATORIES LIMITED, priority 1988, dated 1989)
